Reference: US11905249B2, “Covalent inhibitors of equine encephalitis virus” (priority 2021, dated 2024)
Read-outs that look alike come from different tables or passages of the source.

How the values were obtained:
VEEV (IC-SH3) [1] = test: microbe, parasite or virus in culture; assay type: cell-based; conditions: Venezuelan equine encephalitis virus, Vero, read-out: EC50 (Vero)
VEEV (IC-SH3) [2] = test: microbe, parasite or virus in culture; assay type: cell-based; conditions: Venezuelan equine encephalitis virus, HeLa, read-out: EC50 (HeLa)
VEEV nsP2 protease = VEEV nsP2 protease (Venezuelan equine encephalitis virus, UniProt P27282); test: biochemical; conditions: read-out: estimated percentage inhibition of VEEV nsP2
VEEV TC83 [3] = test: microbe, parasite or virus in culture; assay type: cell-based, Venezuelan equine encephalitis virus
VEEV TC83 [4] = test: microbe, parasite or virus in culture; assay type: cell-based, Venezuelan equine encephalitis virus; remark: listed apart in the source
[5] = Venezuelan equine encephalitis virus, read-out: Human BE(2)-M17 (TC83) EC50 (μM)
[6] = Venezuelan equine encephalitis virus, N2a, in Mus musculus, read-out: Mouse Neuro-2a (TC83) EC50 (μM)

Chain of VEEV nsP2 protease (P27282 1003-1322 limits assumed): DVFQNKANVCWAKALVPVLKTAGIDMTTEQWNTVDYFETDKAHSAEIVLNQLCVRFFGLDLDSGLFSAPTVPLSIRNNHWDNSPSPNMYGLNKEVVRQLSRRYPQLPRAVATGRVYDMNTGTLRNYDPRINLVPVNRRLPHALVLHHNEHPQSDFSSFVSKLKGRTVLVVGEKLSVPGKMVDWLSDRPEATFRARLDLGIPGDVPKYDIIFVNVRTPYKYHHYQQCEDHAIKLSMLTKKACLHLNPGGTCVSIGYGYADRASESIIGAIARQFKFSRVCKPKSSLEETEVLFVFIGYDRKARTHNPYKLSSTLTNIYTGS

Row | SMILES | EC50 (VEEV TC83 [3]; [5]) [µM] | EC50 (VEEV TC83 [4]; [6]) [µM] | Human BE(2)-M17 (TC83) CC50 (BE(2)-M17 cells; human) [µM] | Mouse Neuro-2a (TC83) CC50 (Neuro-2a cells; mouse) [µM] | further results
1 | COC(=O)/C=C/CNC(=O)c1cccc2c1NC(C)(C)C=C2C [Compound 1] | – | – | – | – | EC50 (VEEV (IC-SH3) [1]): 0.55 µM; EC50 (VEEV (IC-SH3) [2]): 6.48 µM
2 | C[C@@H]1CC(C)(C)Nc2c(C(=O)NC/C=C/S(C)(=O)=O)cccc21 [Compound 11] | – | – | – | – | inhibition at 0.9 µM (VEEV nsP2 protease): ~39%
3 | CC1=CC(C)(C)Nc2c(C(=O)N[C@@H](C)/C=C/S(C)(=O)=O)cccc21 [Compound 12] | – | – | – | – | inhibition at 0.9 µM (VEEV nsP2 protease): ~59%
4 | C[C@@H]1CC(C)(C)Nc2c(C(=O)N[C@@H](C)/C=C/S(C)(=O)=O)cccc21 [Compound 13] | – | – | – | – | inhibition at 0.9 µM (VEEV nsP2 protease): ~71%
5 | COC(=O)/C=C/CNC(=O)c1cccc2cccnc12 [Compound 17] | > 25 | > 25 | >25.00 | >25.00 | –
6 | COC(=O)/C=C/CNC(=O)c1cccc2ccc(C)nc12 [Compound 18] | > 25 | > 25 | >25.00 | >25.00 | –
7 | COC(=O)/C=C/CNC(=O)c1ccccc1Nc1ccccc1 [Compound 19] | > 25 | > 25 | >25.00 | >25.00 | –
8 | COC(=O)/C=C/CNC(=O)c1ccccc1Nc1cccc(Cl)c1Cl [Compound 20] | > 25 | > 25 | >25.00 | 1.52 | –
9 | COC(=O)/C=C/CNC(=O)c1c[nH]c2ccc(C)cc12 [Compound 21] | > 25 | > 25 | >25.00 | >25.00 | –
10 | COC(=O)/C=C/CNC(=O)c1cccc2nccnc12 [Compound 22] | > 25 | > 25 | >25.00 | >25.00 | –
11 | COC(=O)/C=C/CNC(=O)c1ccccc1Nc1c(Cl)ccc(C)c1Cl [Compound 23] | > 25 | > 25 | >25.00 | 23.53 | –
12 | COC(=O)/C=C/[C@H](C)NC(=O)c1cccc2c1NC(C)(C)C=C2C [Compound 24] | > 25 | > 25 | >25.00 | >25.00 | –
13 | COC(=O)/C=C/[C@H](C)NC(=O)c1cccc2c1NC(C)(C)C[C@H]2C [Compound 25] | > 25 | > 25 | >25.00 | >25.00 | –
14 | COC(=O)/C=C/C(C)(C)NC(=O)c1cccc2c1NC(C)(C)C=C2C [Compound 26] | > 25 | > 25 | >25.00 | >25.00 | –
15 | COC(=O)/C=C/C(C)(C)NC(=O)c1cccc2c1NC(C)(C)C[C@H]2C [Compound 27] | > 25 | > 25 | >25.00 | >25.00 | –
16 | COC(=O)/C=C/[C@H](Cc1ccccc1)NC(=O)c1c[nH]c2ccc(Cl)cc12 [Compound 28] | > 50 | > 50 | >50.00 | >50.00 | –

Row | SMILES | EC50 (VEEV TC83 [3]; [5]) [µM] | EC50 (VEEV TC83 [4]; [6]) [µM] | Human BE(2)-M17 (TC83) CC50 (BE(2)-M17 cells; human) [µM] | Mouse Neuro-2a (TC83) CC50 (Neuro-2a cells; mouse) [µM] | further results
17 | COC(=O)/C=C/[C@H](Cc1ccccc1)NC(=O)c1cccc2c1NC(C)(C)C=C2C [Compound 29] | > 50 | > 50 | >50.00 | >50.00 | –
18 | COC(=O)/C=C/[C@H](Cc1ccccc1)NC(=O)c1cc(C)cc2c1NC(C)(C)C=C2C [Compound 30] | > 50 | > 50 | >50.00 | >50.00 | –
19 | Cc1ccc2cccc(C(=O)NC/C=C/S(C)(=O)=O)c2n1 [Compound 31] | > 25 | > 25 | >25.00 | >25.00 | –
20 | CS(=O)(=O)/C=C/CNC(=O)c1ccccc1Nc1ccccc1 [Compound 32] | > 25 | > 25 | 27.14 | >25.00 | –
21 | CS(=O)(=O)/C=C/CNC(=O)c1ccccc1Nc1cccc(Cl)c1Cl [Compound 33] | > 25 | > 25 | 5.86 | 15.48 | –
22 | CS(=O)(=O)/C=C/CNC(=O)c1cccc2nccnc12 [Compound 34] | > 25 | > 25 | >25.00 | >25.00 | –
23 | Cc1ccc(Cl)c(Nc2ccccc2C(=O)NC/C=C/S(C)(=O)=O)c1Cl [Compound 35] | 18.2 ± 0.93 | > 25 | 14.50 | >25.00 | –
24 | CS(=O)(=O)/C=C/[C@H](Cc1ccccc1)NC(=O)c1cccc2cccnc12 [Compound 36] | > 25 | > 25 | >25.00 | >25.00 | –
25 | CC1=CC(C)(C)Nc2c(C(=O)N[C@H](/C=C/S(C)(=O)=O)Cc3ccccc3)cc(C)cc21 [Compound 37] | 31.7 ± 16.7 | > 50 | >50.00 | >50.00 | –
26 | CC1=CC(C)(C)Nc2c(C(=O)NC(C)(C)/C=C/S(C)(=O)=O)cccc21 [Compound 38] | > 25 | > 25 | >25.00 | >25.00 | –
27 | C[C@@H]1CC(C)(C)Nc2c(C(=O)NC(C)(C)/C=C/S(C)(=O)=O)cccc21 [Compound 39] | > 25 | > 25 | >25.00 | >25.00 | –
28 | COc1ccc2[nH]cc(C(=O)N[C@H](/C=C/S(=O)(=O)c3ccccc3)Cc3ccccc3)c2c1 [Compound 40] | 23.9 ± 5.33 | > 25 | >25.00 | >25.00 | –
29 | CC1=CC(C)(C)Nc2c(C(=O)N[C@H](/C=C/S(=O)(=O)c3ccccc3)Cc3ccccc3)cccc21 [Compound 41] | > 25 | > 25 | >25.00 | >25.00 | –
30 | C[C@@H]1CC(C)(C)Nc2c(C(=O)N[C@H](/C=C/S(=O)(=O)c3ccccc3)Cc3ccccc3)cccc21 [Compound 42] | > 25 | > 25 | >25.00 | >25.00 | –
31 | O=C(N[C@H](/C=C/S(=O)(=O)c1ccccc1)Cc1ccccc1)c1cccc2c1NCCC2 [Compound 43] | > 25 | > 25 | >25.00 | >25.00 | –
32 | CN1CCN(C)C(=Nc2ccc([N+](=O)[O-])cc2C(=O)Nc2ccccc2)C1 [ML336, reference compound] | – | – | – | – | EC50 (VEEV TC83 [3]; read-out: Human BE(2)-M17 (TC83) EC50): 0.01 µM; EC50 (VEEV TC83 [4]; read-out: Mouse Neuro-2a (TC83) EC50): 0.02 ± 0.01 µM; Human BE(2)-M17 (TC83) CC50 (BE(2)-M17 cells): >2.50 µM; Mouse Neuro-2a (TC83) CC50 (Neuro-2a cells): >2.5 µM
